Measurements as given in ChEMBL document CHEMBL5528002, “Identification of selective 5-LOX and FLAP inhibitors as novel anti-inflammatory agents by ligand-based virtual screening” (Eur J Med Chem, 2024).

Tests used:
[1] = system: Macrophage cell line; experiment: Effect on lipid mediator formation in human M2-like phenotype MDM cells by measuring PGF2alpha formation at 10 uM pre-incubated for 15 mins followed by SACM stimulation and measured after 90 mins by UPLC-MS/MS analysis (reference value: 72 +/- 21 pg/ml); format: functional; conditions: time 105 min, 1.75 h
[2] = system: Macrophage cell line; experiment: Effect on lipid mediator formation in human M1-like phenotype MDM cells by measuring DHA formation at 10 uM pre-incubated for 15 mins followed by SACM stimulation and measured after 90 mins by UPLC-MS/MS analysis relative to control; format: functional; conditions: time 105 min, 1.75 h
[3] = system: Macrophage; experiment: Cytotoxicity against human MDM cells assessed as reduction in cell viability at 10 uM incubated for 24 hrs by MTT assay; format: toxicity, cell-based; conditions: macrophage cell line
[4] = system: Macrophage cell line; experiment: Effect on lipid mediator formation in human M1-like phenotype MDM cells by measuring 5-HETE formation at 10 uM pre-incubated for 15 mins followed by SACM stimulation and measured after 90 mins by UPLC-MS/MS analysis relative to control; format: functional; conditions: time 105 min, 1.75 h
[5] = system: Macrophage cell line; experiment: Effect on lipid mediator formation in human M1-like phenotype MDM cells by measuring LTB4 formation at 10 uM pre-incubated for 15 mins followed by SACM stimulation and measured after 90 mins by UPLC-MS/MS analysis (reference value: 1413 +/- 452 pg/ml); format: functional; conditions: time 105 min, 1.75 h
[6] = system: Macrophage cell line; experiment: Effect on lipid mediator formation in human M2-like phenotype MDM cells by measuring PDX1 formation at 10 uM pre-incubated for 15 mins followed by SACM stimulation and measured after 90 mins by UPLC-MS/MS analysis (reference value: 13 +/- 3 pg/ml); format: functional; conditions: time 105 min, 1.75 h
[7] = target: T1, Polyunsaturated fatty acid 5-lipoxygenase (Homo sapiens, UniProt P09917); experiment: Inhibition of human recombinant 5-LOX expressed in Escherichia coli BL21(DE3) using arachidonic acid as substrate preincubated with compound for 15 mins followed by substrate and CaCl2 addition measured after 10 mins by RP-HPLC analysis
T1 sequence (P09917 whole entry): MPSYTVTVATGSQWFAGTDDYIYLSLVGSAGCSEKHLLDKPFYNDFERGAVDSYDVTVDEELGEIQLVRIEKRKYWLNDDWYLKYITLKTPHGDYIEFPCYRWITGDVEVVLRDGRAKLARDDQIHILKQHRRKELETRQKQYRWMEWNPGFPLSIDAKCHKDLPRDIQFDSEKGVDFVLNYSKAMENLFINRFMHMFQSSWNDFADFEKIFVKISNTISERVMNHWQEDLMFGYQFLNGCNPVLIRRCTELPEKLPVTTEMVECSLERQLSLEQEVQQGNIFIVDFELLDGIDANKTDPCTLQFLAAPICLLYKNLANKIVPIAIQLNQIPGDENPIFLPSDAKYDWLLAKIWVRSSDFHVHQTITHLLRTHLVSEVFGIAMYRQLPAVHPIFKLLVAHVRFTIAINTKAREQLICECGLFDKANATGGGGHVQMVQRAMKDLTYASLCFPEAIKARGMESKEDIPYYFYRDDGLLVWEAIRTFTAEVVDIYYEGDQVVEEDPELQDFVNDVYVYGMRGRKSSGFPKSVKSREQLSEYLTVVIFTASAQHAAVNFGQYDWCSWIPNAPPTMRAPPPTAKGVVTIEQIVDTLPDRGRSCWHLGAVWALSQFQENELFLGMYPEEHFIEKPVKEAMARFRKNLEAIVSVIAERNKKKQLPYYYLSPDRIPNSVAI

[8] = system: Macrophage cell line; experiment: Effect on lipid mediator formation in human M1-like phenotype MDM cells by measuring 15-HETE formation at 10 uM pre-incubated for 15 mins followed by SACM stimulation and measured after 90 mins by UPLC-MS/MS analysis relative to control; format: functional; conditions: time 105 min, 1.75 h
[9] = system: Macrophage cell line; experiment: Effect on lipid mediator formation in human M2-like phenotype MDM cells by measuring RvD1 formation at 10 uM pre-incubated for 15 mins followed by SACM stimulation and measured after 90 mins by UPLC-MS/MS analysis relative to control; format: functional; conditions: time 105 min, 1.75 h
[10] = target: T2, Bifunctional epoxide hydrolase 2 (Homo sapiens) (UniProt P34913); experiment: Inhibition of human sEH at 10 uM relative to control
T2 sequence (whole entry): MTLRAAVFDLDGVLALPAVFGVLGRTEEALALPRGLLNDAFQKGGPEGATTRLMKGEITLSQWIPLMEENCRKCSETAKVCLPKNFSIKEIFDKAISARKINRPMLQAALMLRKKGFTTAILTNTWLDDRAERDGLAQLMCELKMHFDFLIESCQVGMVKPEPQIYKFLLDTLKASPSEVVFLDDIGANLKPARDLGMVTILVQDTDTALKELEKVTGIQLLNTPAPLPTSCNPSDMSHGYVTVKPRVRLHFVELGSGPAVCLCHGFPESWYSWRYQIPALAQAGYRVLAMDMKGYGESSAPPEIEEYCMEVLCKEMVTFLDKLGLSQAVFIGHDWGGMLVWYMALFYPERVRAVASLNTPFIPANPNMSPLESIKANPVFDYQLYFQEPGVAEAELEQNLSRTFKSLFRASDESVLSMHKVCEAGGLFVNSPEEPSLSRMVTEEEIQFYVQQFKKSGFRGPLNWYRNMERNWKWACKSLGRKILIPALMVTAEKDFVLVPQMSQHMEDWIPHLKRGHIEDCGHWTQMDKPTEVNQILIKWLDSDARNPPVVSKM

[11] = system: Macrophage cell line; experiment: Effect on lipid mediator formation in human M2-like phenotype MDM cells by measuring PDX1 formation at 10 uM pre-incubated for 15 mins followed by SACM stimulation and measured after 90 mins by UPLC-MS/MS analysis relative to control; format: functional; conditions: time 105 min, 1.75 h
[12] = system: Macrophage cell line; experiment: Effect on lipid mediator formation in human M1-like phenotype MDM cells by measuring PGE2 formation at 10 uM pre-incubated for 15 mins followed by SACM stimulation and measured after 90 mins by UPLC-MS/MS analysis relative to control; format: functional; conditions: time 105 min, 1.75 h
[13] = system: Macrophage cell line; experiment: Effect on lipid mediator formation in human M2-like phenotype MDM cells by measuring TXB2 formation at 10 uM pre-incubated for 15 mins followed by SACM stimulation and measured after 90 mins by UPLC-MS/MS analysis relative to control; format: functional; conditions: time 105 min, 1.75 h
[14] = system: Macrophage cell line; experiment: Effect on lipid mediator formation in human M2-like phenotype MDM cells by measuring t-LTB4 formation at 10 uM pre-incubated for 15 mins followed by SACM stimulation and measured after 90 mins by UPLC-MS/MS analysis relative to control; format: functional; conditions: time 105 min, 1.75 h
[15] = target: T3, Prostaglandin E synthase (Homo sapiens) (UniProt O14684); experiment: Inhibition of human mPGES-1 assessed as enzyme remaining activity at 10 uM relative to control
T3 sequence (whole entry): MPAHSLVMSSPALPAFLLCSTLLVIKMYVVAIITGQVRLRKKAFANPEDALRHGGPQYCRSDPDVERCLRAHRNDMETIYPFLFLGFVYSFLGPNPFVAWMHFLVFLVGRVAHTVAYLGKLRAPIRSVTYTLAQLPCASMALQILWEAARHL

[16] = target: T4, Polyunsaturated fatty acid 5-lipoxygenase (Homo sapiens) (UniProt P09917); experiment: Inhibition of 5-LOX in human Neutrophil assessed as enzyme remaining activity at 10 uM using arachidonic acid as substrate preincubated with compound for 15 mins followed by substrate and A23187 addition measured after 10 mins by RP-HPLC analysis relative to control; format: cell-based; conditions: time 25.0 min
T4 sequence (whole entry): T1 sequence (P09917 whole entry)

| IC50 [7] [µM] | inhibition [10] [%] | Activity [15] [%] | Activity [16] [%] | SMILES | Activity [1] [pg/mL] | Activity [2] [%] | Activity [3] | Activity [4] [%] | Activity [5] [pg/mL] | Activity [6] [pg/mL] | Activity [8] [%] | Activity [9] [%] | Activity [11] [%] | Activity [12] [%] | Activity [13] [%] | Activity [14] [%] |
| --- | --- | --- | --- | --- | --- | --- | --- | --- | --- | --- | --- | --- | --- | --- | --- | --- |
| > 10 | > 35 | 89.3 | 18.6 | COc1ccc(C2=C/C(=C/c3ccc(O)cc3O)C(=O)O2)cc1 | 89 | 108 | Non-Toxic | 7 | 115 | 18 | 90 | 114 | 144 | 93 | 76 | 11 |
| > 10 | > 35 | 80.3 | 24.3 | Oc1ccc(CCC2CCC(c3ccc(O)cc3)CO2)cc1 (configuration not stated) | 58 | 94 | Non-Toxic | 13 | 79 | 15 | 85 | 82 | 116 | 69 | 86 | 20 |
